Data published in paper PMC7269367 (Chemical research in toxicology, 2019).
Blank lines part the entries; values can stand above or below the compound they belong to.

How the values were obtained:
[1] = tested on: Dhcr7 / cholesterol biosynthesis in Neuro2a cells; test: Cellular sterol levels in Neuro2a cells after exposure; format: cell-based, Mouse; details: 100 nM; for cellular accumulation of 7-DHC, less than the accumulation caused by C10-BAC: 72 hours; for cellular desmosterol and cholesterol: 72 hour exposure, serum-free media, relative to Control
[2] = tested on: 3β-hydroxysterol-Δ^7-reductase (DHCR7); details: at nM concentrations; cited from earlier work
[3] = Metabolic stability of BACs in HLM; format: in vitro ADME, human; details: BAC 2 μM incubated separately, HLM 1 mg/mL, NADPH-dependent consumption
recombinant CYP2D6 = recombinant CYP2D6 (Homo sapiens, UniProt P10635); test: BAC consumption by human recombinant CYP2D6; format: in vitro ADME; details: 2 μM substrate, 50 nM P450, 30-minute incubation, NADPH
Sequence of recombinant CYP2D6 (P10635 whole entry): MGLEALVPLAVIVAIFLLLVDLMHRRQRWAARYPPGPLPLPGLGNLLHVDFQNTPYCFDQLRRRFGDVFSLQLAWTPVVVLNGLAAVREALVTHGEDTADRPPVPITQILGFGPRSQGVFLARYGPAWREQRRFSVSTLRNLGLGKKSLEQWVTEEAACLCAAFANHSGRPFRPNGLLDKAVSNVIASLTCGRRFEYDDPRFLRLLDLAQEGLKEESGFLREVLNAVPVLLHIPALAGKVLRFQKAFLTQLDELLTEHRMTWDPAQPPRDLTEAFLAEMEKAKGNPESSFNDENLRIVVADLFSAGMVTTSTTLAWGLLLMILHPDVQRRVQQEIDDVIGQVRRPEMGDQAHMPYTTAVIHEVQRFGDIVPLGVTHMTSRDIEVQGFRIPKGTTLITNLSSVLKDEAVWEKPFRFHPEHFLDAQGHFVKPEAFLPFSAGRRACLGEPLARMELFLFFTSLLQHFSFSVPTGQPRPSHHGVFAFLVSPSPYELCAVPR

recombinant CYP3A4 = recombinant CYP3A4 (Homo sapiens, UniProt P08684); test: BAC consumption by human recombinant CYP3A4; format: in vitro ADME; details: 2 μM substrate, 50 nM P450, 30-minute incubation, NADPH
Sequence of recombinant CYP3A4 (P08684 whole entry): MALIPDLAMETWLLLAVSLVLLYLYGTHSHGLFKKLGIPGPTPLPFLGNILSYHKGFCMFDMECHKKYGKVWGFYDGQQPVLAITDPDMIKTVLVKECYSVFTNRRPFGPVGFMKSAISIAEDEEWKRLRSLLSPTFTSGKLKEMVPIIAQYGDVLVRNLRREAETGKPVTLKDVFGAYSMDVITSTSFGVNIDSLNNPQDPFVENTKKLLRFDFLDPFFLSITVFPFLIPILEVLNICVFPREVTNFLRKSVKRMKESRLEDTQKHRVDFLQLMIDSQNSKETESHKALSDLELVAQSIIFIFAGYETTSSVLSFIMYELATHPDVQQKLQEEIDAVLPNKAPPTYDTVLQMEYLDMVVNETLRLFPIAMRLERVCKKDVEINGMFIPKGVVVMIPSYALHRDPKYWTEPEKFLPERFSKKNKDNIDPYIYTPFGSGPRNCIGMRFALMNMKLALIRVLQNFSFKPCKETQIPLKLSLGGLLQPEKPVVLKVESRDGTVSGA

[4] = Time-courses of C10-BAC depletion and metabolite formation in HLM; details: HLM 0.2 mg/mL
[5] = Kinetic characterization of C10-BAC hydroxylation in HLM; format: in vitro ADME, human; details: HLM 0.04 mg/mL, NADPH, 0.1 to 128 μM C10-BAC, initial rates
recombinant CYP4F12 = target: T1, recombinant CYP4F12 (Homo sapiens, UniProt Q9HCS2); test: BAC consumption by human recombinant CYP4F12; format: in vitro ADME; details: for substrate consumed by recombinant CYP4F12: 50 nM P450, 30-minute incubation, NADPH
T1 sequence (Q9HCS2 1-524): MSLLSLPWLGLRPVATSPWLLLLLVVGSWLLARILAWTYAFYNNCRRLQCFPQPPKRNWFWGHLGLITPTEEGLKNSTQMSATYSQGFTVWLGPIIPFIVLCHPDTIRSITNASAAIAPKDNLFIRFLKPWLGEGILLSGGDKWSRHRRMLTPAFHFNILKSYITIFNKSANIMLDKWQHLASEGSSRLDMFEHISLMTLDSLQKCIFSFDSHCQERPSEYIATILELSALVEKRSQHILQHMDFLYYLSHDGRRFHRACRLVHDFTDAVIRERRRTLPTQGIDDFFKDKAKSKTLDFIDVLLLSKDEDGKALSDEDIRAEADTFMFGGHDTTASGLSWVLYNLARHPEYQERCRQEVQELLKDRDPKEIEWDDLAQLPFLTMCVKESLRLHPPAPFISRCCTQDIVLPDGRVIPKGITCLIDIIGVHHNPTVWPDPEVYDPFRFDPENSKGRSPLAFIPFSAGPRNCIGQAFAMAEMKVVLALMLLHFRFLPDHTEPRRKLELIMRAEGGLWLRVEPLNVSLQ

recombinant CYP2A6 = target: T2, recombinant CYP2A6 (Homo sapiens, UniProt P11509); test: BAC consumption by human recombinant CYP2A6; format: in vitro ADME; details: 2 μM substrate, 50 nM P450, 30-minute incubation, NADPH
T2 sequence (P11509 1-494): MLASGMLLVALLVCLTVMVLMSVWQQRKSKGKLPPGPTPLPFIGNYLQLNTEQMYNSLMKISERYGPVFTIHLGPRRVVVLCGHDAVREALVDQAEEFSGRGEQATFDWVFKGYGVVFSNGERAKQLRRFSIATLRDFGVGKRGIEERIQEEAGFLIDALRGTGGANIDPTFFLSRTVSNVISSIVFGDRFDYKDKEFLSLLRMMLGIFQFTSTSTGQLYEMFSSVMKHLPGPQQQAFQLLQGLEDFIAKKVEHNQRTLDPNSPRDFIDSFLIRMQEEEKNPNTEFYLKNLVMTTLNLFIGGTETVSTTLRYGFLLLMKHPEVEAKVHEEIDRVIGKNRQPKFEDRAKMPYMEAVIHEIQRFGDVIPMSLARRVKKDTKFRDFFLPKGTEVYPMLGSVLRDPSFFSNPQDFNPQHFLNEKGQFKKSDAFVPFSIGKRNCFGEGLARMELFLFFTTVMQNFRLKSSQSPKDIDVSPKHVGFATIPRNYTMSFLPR

recombinant CYP4F2 = target: T3, recombinant CYP4F2 (Homo sapiens, UniProt P78329); test: BAC consumption by human recombinant CYP4F2; format: in vitro ADME; details: for effective inhibitor of recombinant CYP4F2 (C16-BAC consumption): inhibitor 1 μM, C16-BAC 2 μM, 50 nM P450, 20 minutes
T3 sequence (P78329 5-520): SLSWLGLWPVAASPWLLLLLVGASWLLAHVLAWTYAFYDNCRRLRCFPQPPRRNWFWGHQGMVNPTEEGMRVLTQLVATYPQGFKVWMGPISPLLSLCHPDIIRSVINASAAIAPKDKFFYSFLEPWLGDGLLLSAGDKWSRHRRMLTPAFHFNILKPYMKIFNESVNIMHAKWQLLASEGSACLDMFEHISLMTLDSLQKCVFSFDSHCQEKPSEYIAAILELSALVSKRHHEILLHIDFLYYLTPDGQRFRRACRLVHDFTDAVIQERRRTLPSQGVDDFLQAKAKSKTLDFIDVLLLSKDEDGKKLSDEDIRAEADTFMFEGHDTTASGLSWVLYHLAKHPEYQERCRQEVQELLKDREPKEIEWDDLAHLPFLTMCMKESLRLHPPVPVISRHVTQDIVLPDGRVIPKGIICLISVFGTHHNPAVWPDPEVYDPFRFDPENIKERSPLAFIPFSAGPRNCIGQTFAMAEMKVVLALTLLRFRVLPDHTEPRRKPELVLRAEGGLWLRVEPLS

Compound: CC(O)CCCCCCCC[N+](C)(C)Cc1ccccc1.[Cl-] (stereo not shown) [(ω−1)-hydroxy-C10-BAC]
cellular accumulation of 7-DHC, less than the accumulation caused by C10-BAC [1]: over 2 orders of magnitude

Compound: Cl.Cl.Clc1ccccc1CNCC1CCC(CNCc2ccccc2Cl)CC1 (stereo not shown) [AY9944, reference compound]
cellular desmosterol and cholesterol [1]: significant decreased level

apparent half-life in HLM [3]: approximately 1 minutes
substrate consumed by recombinant CYP2D6 (recombinant CYP2D6): essentially all
substrate consumed by recombinant CYP3A4 (recombinant CYP3A4): 15%
C10-BAC concentration remaining at the 4-minute time point ([4]; 680 nM initial substrate, NADPH, no inhibitor): 341 ± 7 nM
Km ([5]; read-out: Km of (ω−1)-hydroxylation): 0.13 µM
substrate consumed by recombinant CYP4F12 (recombinant CYP4F12; 2 μM substrate): essentially all
Compound: CCCCCCCCCC[N+](C)(C)Cc1ccccc1.[Cl-] [C10-BAC]
inhibition of DHCR7 in the cholesterol biosynthesis pathway [2]: inhibit
Vmax of (ω−1)-hydroxylation [5]: 126 pmol/min/mg
Vmax of ω-hydroxylation [5]: 380 pmol/min/mg
cellular desmosterol and cholesterol [1]: significant decreased level

apparent half-life in HLM [3]: ~6 min
Compound: CCCCCCCCCCCCCC[N+](C)(C)Cc1ccccc1.[Cl-] [C14-BAC]

apparent half-life in HLM [3]: ~15 min
substrate consumed by recombinant CYP2D6 (recombinant CYP2D6): 77%
substrate consumed by recombinant CYP2A6 (recombinant CYP2A6): 5%
substrate consumed by recombinant CYP4F2 (recombinant CYP4F2; 2 μM substrate, 50 nM P450, 30-minute incubation, NADPH): 45%
substrate consumed by recombinant CYP4F12 (recombinant CYP4F12; 2 μM substrate): 88%
C16-BAC percent remaining with recombinant CYP4F12, HET0016 alone (recombinant CYP4F12; 2 μM substrate, 50 nM P450, 20 minute incubation, HET0016 1 μM, mean ± SD, n = 3): 49% ± 6%
C16-BAC percent remaining with recombinant CYP4F12, no inhibitor (recombinant CYP4F12; 2 μM substrate, 50 nM P450, 20 minute incubation, no inhibitor, mean ± SD, n = 3): 26% ± 4%
Compound: CCCCCCCCCCCCCCCC[N+](C)(C)Cc1ccccc1.[Cl-] [C16-BAC]

effect on (ω−1)-ketone formation from C10-BAC in HLM ([4]; inhibitor 1 μM, C10-BAC 680 nM): suppressing
effect on C10-BAC (ω−1)-hydroxylation / oxidation at the (ω−1)-position in HLM ([4]; inhibitor 1 μM, C10-BAC 680 nM): promoted
effect on C10-BAC ω-hydroxylation (ω-hydroxy metabolite formation) in HLM ([4]; inhibitor 1 μM, C10-BAC 680 nM): nearly complete inhibition
effect on ω-carboxylic acid formation from C10-BAC in HLM ([4]; inhibitor 1 μM, C10-BAC 680 nM): nearly complete inhibition
effective inhibitor of recombinant CYP4F2 (C16-BAC consumption) (recombinant CYP4F2): essentially complete inhibition
Compound: CCCCc1ccc(N=CNO)c(C)c1 [HET0016]

effect on C10-BAC (ω−1)-hydroxylation / oxidation at the (ω−1)-position in HLM ([4]; inhibitor 1 μM, C10-BAC 680 nM): primarily inhibitory
effect on C10-BAC ω-hydroxylation (ω-hydroxy metabolite formation) in HLM ([4]; inhibitor 1 μM, C10-BAC 680 nM): did not inhibit
effect on ω-carboxylic acid formation from C10-BAC in HLM ([4]; inhibitor 1 μM, C10-BAC 680 nM): partial suppression
effective inhibitor of recombinant CYP4F2 (C16-BAC consumption) (recombinant CYP4F2): not
inhibition of C16-BAC consumption by recombinant CYP4F12 (recombinant CYP4F12; inhibitor 1 μM alone, C16-BAC 2 μM, 50 nM P450, 20 minutes): did not inhibit
Compound: C=C[C@H]1C[N@@]2CC[C@H]1C[C@@H]2[C@@H](O)c1ccnc2ccc(OC)cc12 [quinidine]

Compound: C[N+](C)(CCCCCCCCCCO)Cc1ccccc1.[Cl-] [ω-hydroxy-C10-BAC]
cellular accumulation of 7-DHC, less than the accumulation caused by C10-BAC [1]: over 2 orders of magnitude
